In the supplement of paper PMC10307832:

How the values were obtained:
Experiment in all cases: relative viability (nuclei count vs DMSO), 5 days (fraction); higher = more cells survive
Kobe2602 + Crizotinib = compound: C1=CC(=CC=C1NC(=S)NNC2=C(C=C(C=C2[N+](=O)[O-])C(F)(F)F)[N+](=O)[O-])F [Kobe2602] + C[C@@H](Oc1cc(-c2cnn(C3CCNCC3)c2)cnc1N)c1c(Cl)ccc(F)c1Cl [Crizotinib] (partner 1 µM)
Outline: (§1)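 The day after seeding in 1536-well plates, lung cancer cell lines were treated by pin tool with a single drug, or with a fixed anchor-drug dose together with five library-drug doses (not always all listed) in √10 steps. After 5 days, a combined fix-and-stain solution (final 0.05% Triton X-100, 1% formaldehyde, 1 ug/ml Hoechst) was added. Nuclei counted on 4× images gave relative viability as treated counts over vehicle counts, reported as the median of duplicate plates.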

Kobe2602 + Linsitinib = compound: C1=CC(=CC=C1NC(=S)NNC2=C(C=C(C=C2[N+](=O)[O-])C(F)(F)F)[N+](=O)[O-])F [Kobe2602] + C[C@]1(O)C[C@@H](c2nc(-c3ccc4ccc(-c5ccccc5)nc4c3)c3c(N)nccn32)C1 [Linsitinib] (partner 1 µM)
Outline: as §1

Kobe2602 + Alpelisib = compound: C1=CC(=CC=C1NC(=S)NNC2=C(C=C(C=C2[N+](=O)[O-])C(F)(F)F)[N+](=O)[O-])F [Kobe2602] + Cc1nc(NC(=O)N2CCC[C@H]2C(N)=O)sc1-c1ccnc(C(C)(C)C(F)(F)F)c1 [Alpelisib] (partner 2 µM)
Outline: as §1

Kobe2602 + Olaparib = compound: C1=CC(=CC=C1NC(=S)NNC2=C(C=C(C=C2[N+](=O)[O-])C(F)(F)F)[N+](=O)[O-])F [Kobe2602] + O=C(c1cc(Cc2n[nH]c(=O)c3ccccc23)ccc1F)N1CCN(C(=O)C2CC2)CC1 [Olaparib] (partner 8 µM)
Outline: as §1

| Cell Line | relative viability (Kobe2602 + Crizotinib; first compound 0.2 µM) | relative viability (Kobe2602 + Crizotinib; first compound 0.6325 µM) | relative viability (Kobe2602 + Crizotinib; first compound 2 µM) | relative viability (Kobe2602 + Crizotinib; first compound 6.325 µM) | relative viability (Kobe2602 + Crizotinib; first compound 20 µM) | relative viability (Kobe2602 + Linsitinib; first compound 0.2 µM) | relative viability (Kobe2602 + Linsitinib; first compound 0.6325 µM) | relative viability (Kobe2602 + Linsitinib; first compound 2 µM) | relative viability (Kobe2602 + Linsitinib; first compound 6.325 µM) | relative viability (Kobe2602 + Linsitinib; first compound 20 µM) | relative viability (Kobe2602 + Alpelisib; first compound 0.2 µM) | relative viability (Kobe2602 + Alpelisib; first compound 0.6325 µM) | relative viability (Kobe2602 + Alpelisib; first compound 2 µM) | relative viability (Kobe2602 + Alpelisib; first compound 6.325 µM) | relative viability (Kobe2602 + Alpelisib; first compound 20 µM) | relative viability (Kobe2602 + Olaparib; first compound 0.2 µM) | relative viability (Kobe2602 + Olaparib; first compound 0.6325 µM) | relative viability (Kobe2602 + Olaparib; first compound 2 µM) | relative viability (Kobe2602 + Olaparib; first compound 6.325 µM) | relative viability (Kobe2602 + Olaparib; first compound 20 µM) |
| --- | --- | --- | --- | --- | --- | --- | --- | --- | --- | --- | --- | --- | --- | --- | --- | --- | --- | --- | --- | --- |
| LU99A | 0.557 | 0.601 | 0.571 | 0.607 | 0.641 | 0.538 | 0.53 | 0.471 | 0.585 | 0.631 | 0.515 | 0.525 | 0.415 | 0.542 | 0.607 | 0.255 | 0.275 | 0.259 | 0.262 | 0.28 |
| LXF-289 | 0.789 | 0.826 | 0.826 | 0.792 | 0.791 | 0.944 | 0.985 | 0.941 | 0.952 | 0.919 | 1.01 | 1.02 | 0.976 | 1.06 | 0.994 | 1.05 | 1.1 | 1.05 | 0.955 | 1.04 |
| NCI-H23 | 0.5 | 0.604 | 0.392 | 0.499 | 0.619 | 0.528 | 0.706 | 0.477 | 0.652 | 0.525 | 0.669 | 0.863 | 0.68 | 0.829 | 0.811 | 0.367 | 0.355 | 0.249 | 0.277 | 0.313 |
| NCI-H322M | 0.81 | 0.95 | 0.995 | 0.893 | 0.867 | 0.88 | 1.01 | 0.883 | 1 | 0.921 | 0.808 | 0.81 | 0.828 | 0.827 | 0.792 | 0.737 | 0.752 | 0.776 | 0.875 | 0.828 |
| NCI-H358 | 0.598 | 0.597 | 0.581 | 0.746 | 0.652 | 0.684 | 0.77 | 0.771 | 0.758 | 0.732 | 0.799 | 0.836 | 0.677 | 0.884 | 0.827 | 0.586 | 0.592 | 0.589 | 0.528 | 0.653 |
| NCI-H441 | 0.719 | 0.662 | 0.606 | 0.876 | 0.713 | 0.612 | 0.746 | 0.48 | 0.557 | 0.623 | 0.725 | 0.864 | 0.682 | 0.704 | 0.727 | 0.581 | 0.716 | 0.66 | 0.511 | 0.545 |
| NCI-H460 | 0.855 | 0.905 | 0.922 | 0.893 | 0.729 | 0.826 | 0.768 | 0.709 | 0.894 | 0.725 | 0.513 | 0.55 | 0.507 | 0.499 | 0.444 | 0.427 | 0.416 | 0.455 | 0.423 | 0.43 |
| NCI-H520 | 0.694 | 0.711 | 0.746 | 0.757 | 0.763 | 0.997 | 1.04 | 1.02 | 0.984 | 0.968 | 0.912 | 1.12 | 0.848 | 0.84 | 0.859 | 0.333 | 0.38 | 0.381 | 0.353 | 0.333 |
| NCI-H596 | 0.723 | 1.03 | 0.944 | 1.21 | 1 | 1.15 | 1.19 | 1.09 | 1.06 | 0.986 | 0.489 | 0.438 | 0.46 | 0.453 | 0.415 | 0.758 | 0.661 | 0.718 | 0.718 | 0.799 |
| NCI-H647 | 1.2 | 1.24 | 0.887 | 1.07 | 1.03 | 1.12 | 1.45 | 1.25 | 0.864 | 1.19 | 1.23 | 1.37 | 1.11 | 1.21 | 1.12 | 0.511 | 0.39 | 0.55 | 0.606 | 0.618 |
| NCI-H650 | 0.683 | 0.692 | 0.854 | 0.849 | 0.636 | 0.758 | 1.03 | 0.912 | 0.897 | 0.954 | 1.06 | 1.28 | 1.12 | 1.14 | 1.08 | 0.4 | 0.443 | 0.37 | 0.403 | 0.401 |
| NCI-H661 | 0.933 |  | 0.971 | 1.06 | 1.1 | 0.53 | 0.559 | 0.629 | 0.539 | 0.581 | 0.565 | 0.644 | 0.738 | 0.661 | 0.955 | 0.714 | 0.695 | 0.697 | 0.754 | 0.802 |
| NCI-H727 | 0.767 | 0.69 | 0.776 | 0.64 | 0.865 | 0.306 | 0.319 | 0.253 | 0.239 | 0.324 | 0.625 | 0.518 | 0.614 | 0.571 | 0.728 | 0.748 | 0.678 | 0.847 |  | 0.736 |
| NCI-H838 | 0.777 | 0.964 | 0.759 | 0.909 | 0.83 | 0.91 | 1.12 | 0.88 | 0.992 | 1.07 | 0.909 | 1.01 | 0.915 | 1 | 0.976 | 0.733 | 0.779 | 0.759 | 0.725 | 0.764 |
| NCI-H1299 | 0.922 | 0.938 | 0.93 | 0.952 | 0.925 | 0.887 | 0.979 | 0.961 | 1.03 | 0.945 | 1.02 | 1.05 | 1.08 | 1.13 | 1.05 | 0.996 | 1.02 | 0.949 | 1.02 | 0.985 |
| NCI-H1355 | 1.04 | 1.12 | 0.747 | 0.952 | 0.957 | 0.784 | 0.782 | 0.749 | 0.769 | 0.787 | 0.791 | 0.938 | 0.79 | 0.751 | 0.845 | 0.742 | 0.747 | 0.712 | 0.727 | 0.601 |
